We go through three compounds from ChEMBL document CHEMBL3046781, “Resistance of Helicoverpa assulta (Guenée) (Lepidoptera: Noctuidae) to fenvalerate, phoxim and methomyl in China” (2009).

What all share (type): functional
Assay [1] relates to Helicoverpa assulta. The assay can be described thus: Resistance factor, ratio of LD50 for sixth-instar larvae of Helicoverpa assulta GZ1 to LD50 for sixth-instar larvae of Helicoverpa assulta at 1.8 to 183360 mg/l.
Assay [2] deals with Helicoverpa assulta. As to the kind of experiment: Insecticidal activity against sixth-instar larvae of Helicoverpa assulta YN7 at 1.8 to 183360 mg/l after 48 hr by chi-squared analysis.
Assay [3] has as its system Helicoverpa assulta. The assay can be described thus: Insecticidal activity against sixth-instar larvae of Helicoverpa assulta GZ5 at 1.8 to 183360 mg/l after 48 hr by chi-squared analysis.
Assay [4] has as its system Helicoverpa assulta. The assay can be described thus: Insecticidal activity against sixth-instar larvae of Helicoverpa assulta FJ1 at 1.8 to 183360 mg/l after 48 hr by chi-squared analysis.
In assay [5] the test system is Helicoverpa assulta. The assay can be described thus: Resistance factor, ratio of LD50 for sixth-instar larvae of Helicoverpa assulta FJ1 to LD50 for sixth-instar larvae of Helicoverpa assulta at 1.8 to 183360 mg/l.
Assay [6] deals with Helicoverpa assulta. As to the kind of experiment: Resistance factor, ratio of LD50 for sixth-instar larvae of Helicoverpa assulta HB1 to LD50 for sixth-instar larvae of Helicoverpa assulta at 1.8 to 183360 mg/l.
In assay [7] the test system is Helicoverpa assulta. The assay can be described thus: Resistance factor, ratio of LD50 for sixth-instar larvae of Helicoverpa assulta FJ2 to LD50 for sixth-instar larvae of Helicoverpa assulta at 1.8 to 183360 mg/l.
In assay [8] the test system is Helicoverpa assulta. As to the kind of experiment: Insecticidal activity against sixth-instar larvae of Helicoverpa assulta GZ4 at 1.8 to 183360 mg/l after 48 hr by chi-squared analysis.
Assay [9] deals with Helicoverpa assulta. As to the kind of experiment: Insecticidal activity against sixth-instar larvae of Helicoverpa assulta YN5 at 1.8 to 183360 mg/l after 48 hr by chi-squared analysis.
Assay [10] relates to Helicoverpa assulta. As to the kind of experiment: Insecticidal activity against sixth-instar larvae of Helicoverpa assulta at 1.8 to 183360 mg/l after 48 hr by chi-squared analysis.
The subject of assay [11] is Helicoverpa assulta. As to the kind of experiment: Resistance factor, ratio of LD50 for sixth-instar larvae of Helicoverpa assulta YN8 to LD50 for sixth-instar larvae of Helicoverpa assulta at 1.8 to 183360 mg/l.
The test system of assay [12] is Helicoverpa assulta. As to the kind of experiment: Insecticidal activity against sixth-instar larvae of Helicoverpa assulta GZ2 at 1.8 to 183360 mg/l after 48 hr by chi-squared analysis.
Assay [13] concerns Helicoverpa assulta. As to the kind of experiment: Resistance factor, ratio of LD50 for sixth-instar larvae of Helicoverpa assulta HB1 to LD50 for sixth-instar larvae of Helicoverpa assulta at 21 to 3390 mg/l.
In assay [14] the test system is Helicoverpa assulta. The assay can be described thus: Resistance factor, ratio of LD50 for sixth-instar larvae of Helicoverpa assulta FJ3 to LD50 for sixth-instar larvae of Helicoverpa assulta at 21 to 3390 mg/l.
Assay [15] has as its system Helicoverpa assulta. As to the kind of experiment: Insecticidal activity against sixth-instar larvae of Helicoverpa assulta AH3 at 21 to 3390 mg/l after 48 hr by chi-squared analysis.
Assay [16] concerns Helicoverpa assulta. The assay can be described thus: Resistance factor, ratio of LD50 for sixth-instar larvae of Helicoverpa assulta YN8 to LD50 for sixth-instar larvae of Helicoverpa assulta at 21 to 3390 mg/l.
Assay [17] relates to Helicoverpa assulta. The assay can be described thus: Insecticidal activity against sixth-instar larvae of Helicoverpa assulta at 21 to 3390 mg/l after 48 hr by chi-squared analysis.
In assay [18] the test system is Helicoverpa assulta. The assay can be described thus: Resistance factor, ratio of LD50 for sixth-instar larvae of Helicoverpa assulta YN1 to LD50 for sixth-instar larvae of Helicoverpa assulta at 21 to 3390 mg/l.
The subject of assay [19] is Helicoverpa assulta. The assay can be described thus: Resistance factor, ratio of LD50 for sixth-instar larvae of Helicoverpa assulta FJ2 to LD50 for sixth-instar larvae of Helicoverpa assulta at 21 to 3390 mg/l.
For assay [20], the system named is Helicoverpa assulta. As to the kind of experiment: Insecticidal activity against sixth-instar larvae of Helicoverpa assulta FJ2 at 21 to 3390 mg/l after 48 hr by chi-squared analysis.
Assay [21] has as its system Helicoverpa assulta. The assay can be described thus: Resistance factor, ratio of LD50 for sixth-instar larvae of Helicoverpa assulta GZ2 to LD50 for sixth-instar larvae of Helicoverpa assulta at 39 to 12630 mg/l.
The test system of assay [22] is Helicoverpa assulta. As to the kind of experiment: Resistance factor, ratio of LD50 for sixth-instar larvae of Helicoverpa assulta AH2 to LD50 for sixth-instar larvae of Helicoverpa assulta at 39 to 12630 mg/l.
Assay [23] has as its system Helicoverpa assulta. The assay can be described thus: Insecticidal activity against sixth-instar larvae of Helicoverpa assulta AH3 at 39 to 12630 mg/l after 48 hr by chi-squared analysis.
In assay [24] the test system is Helicoverpa assulta. As to the kind of experiment: Insecticidal activity against sixth-instar larvae of Helicoverpa assulta AH2 at 39 to 12630 mg/l after 48 hr by chi-squared analysis.
In assay [25] the test system is Helicoverpa assulta. As to the kind of experiment: Resistance factor, ratio of LD50 for sixth-instar larvae of Helicoverpa assulta YN5 to LD50 for sixth-instar larvae of Helicoverpa assulta at 39 to 12630 mg/l.
Assay [26] concerns Helicoverpa assulta. As to the kind of experiment: Insecticidal activity against sixth-instar larvae of Helicoverpa assulta GZ1 at 39 to 12630 mg/l after 48 hr by chi-squared analysis.
The test system of assay [27] is Helicoverpa assulta. As to the kind of experiment: Resistance factor, ratio of LD50 for sixth-instar larvae of Helicoverpa assulta GZ5 to LD50 for sixth-instar larvae of Helicoverpa assulta at 39 to 12630 mg/l.
Assay [28] deals with Helicoverpa assulta. The assay can be described thus: Insecticidal activity against sixth-instar larvae of Helicoverpa assulta FJ1 at 39 to 12630 mg/l after 48 hr by chi-squared analysis.
Assay [29] relates to Helicoverpa assulta. The assay can be described thus: Insecticidal activity against sixth-instar larvae of Helicoverpa assulta HN2 at 39 to 12630 mg/l after 48 hr by chi-squared analysis.
The subject of assay [30] is Helicoverpa assulta. As to the kind of experiment: Insecticidal activity against sixth-instar larvae of Helicoverpa assulta GZ2 at 39 to 12630 mg/l after 48 hr by chi-squared analysis.
In assay [31] the test system is Helicoverpa assulta. The assay can be described thus: Insecticidal activity against sixth-instar larvae of Helicoverpa assulta YN2 at 39 to 12630 mg/l after 48 hr by chi-squared analysis.
Assay [32] has as its system Helicoverpa assulta. The assay can be described thus: Insecticidal activity against sixth-instar larvae of Helicoverpa assulta SD1 at 39 to 12630 mg/l after 48 hr by chi-squared analysis.
Assay [33] concerns Helicoverpa assulta. As to the kind of experiment: Resistance factor, ratio of LD50 for sixth-instar larvae of Helicoverpa assulta SD2 to LD50 for sixth-instar larvae of Helicoverpa assulta at 39 to 12630 mg/l.
For assay [34], the system named is Helicoverpa assulta. The assay can be described thus: Resistance factor, ratio of LD50 for sixth-instar larvae of Helicoverpa assulta YN6 to LD50 for sixth-instar larvae of Helicoverpa assulta at 39 to 12630 mg/l.
Assay [35] concerns Helicoverpa assulta. As to the kind of experiment: Resistance factor, ratio of LD50 for sixth-instar larvae of Helicoverpa assulta GZ3 to LD50 for sixth-instar larvae of Helicoverpa assulta at 39 to 12630 mg/l.

Structures are written as SMILES.

As for `CC(C)C(C(=O)OC(C#N)c1cccc(Oc2ccccc2)c1)c1ccc(Cl)cc1` (stereo not drawn) [FENVALERATE], the Ratio turned out to be 1860 with Helicoverpa assulta [1]; 9.01 in the assay on Helicoverpa assulta [5]; 5.83 with Helicoverpa assulta [6]; 12.9 in the assay with Helicoverpa assulta [7]; 17622 with Helicoverpa assulta [11]. Besides, the LD90 in the assay with Helicoverpa assulta [2] was found to be 507 µg/g; in the assay with Helicoverpa assulta [3], 74.2 µg/g; in the assay on Helicoverpa assulta [4], 5.67 µg/g; in the assay on Helicoverpa assulta [8], 133 µg/g; in the assay on Helicoverpa assulta [9], 4567 µg/g; in the assay with Helicoverpa assulta [10] it was 0.723 µg/g. This compound returned an LD90 with Helicoverpa assulta [12] of 558 µg/g. Also, the LD50 – broadly, the dose expected to kill half of the subjects tested – is 249 mg/kg in the assay on Helicoverpa assulta [2] (Helicoverpa assulta, YN7, 48 h); 30.6 mg/kg with Helicoverpa assulta [3] (Helicoverpa assulta, GZ5, 48 h); 1.46 mg/kg with Helicoverpa assulta [4] (Helicoverpa assulta, FJ1, 48 h); 56.2 mg/kg in the assay on Helicoverpa assulta [8] (Helicoverpa assulta, GZ4, 48 h); 1430 mg/kg with Helicoverpa assulta [9] (Helicoverpa assulta, YN5, 48 h); 0.162 mg/kg with Helicoverpa assulta [10] (Helicoverpa assulta, 48 h). Besides, the LD50 in the assay with Helicoverpa assulta [12] (Helicoverpa assulta, GZ2, 48 h) stood at 169 mg/kg.
In the case of `CNC(=O)ON=C(C)SC` [METHOMYL], the Ratio came to 8.45 in the assay with Helicoverpa assulta [13]; 16.3 in the assay on Helicoverpa assulta [14]; 23.1 with Helicoverpa assulta [16]; 31.6 in the assay on Helicoverpa assulta [18]; 19.9 with Helicoverpa assulta [19]. For the same compound, the LD90 with Helicoverpa assulta [15] came out at 44.7 µg/g; in the assay on Helicoverpa assulta [17], 4.1 µg/g; with Helicoverpa assulta [20] it was 108 µg/g. Also, the LD50 is 18.4 mg/kg in the assay on Helicoverpa assulta [15] (Helicoverpa assulta, AH3, 48 h); 1.45 mg/kg in the assay on Helicoverpa assulta [17] (Helicoverpa assulta, 48 h); 28.7 mg/kg in the assay on Helicoverpa assulta [20] (Helicoverpa assulta, FJ2, 48 h).
With `CCOP(=S)(OCC)O/N=C(\C#N)c1ccccc1` [PHOXIM], the Ratio with Helicoverpa assulta [21] is reported as 10.8; in the assay on Helicoverpa assulta [22], 7.13; in the assay on Helicoverpa assulta [25], 11; in the assay with Helicoverpa assulta [27], 7.1; in the assay on Helicoverpa assulta [33] it was 7.37; in the assay with Helicoverpa assulta [34], 9.17. The Ratio in the assay on Helicoverpa assulta [35] was determined as 8.94. The LD90 in the assay on Helicoverpa assulta [23] turned out to be 181 µg/g; in the assay on Helicoverpa assulta [24], 33.5 µg/g; in the assay on Helicoverpa assulta [26], 124 µg/g; with Helicoverpa assulta [28], 62.2 µg/g; in the assay with Helicoverpa assulta [29], 19.9 µg/g; with Helicoverpa assulta [30], 101 µg/g. Besides, the LD90 in the assay on Helicoverpa assulta [31] is 107 µg/g; in the assay with Helicoverpa assulta [32], 26.5 µg/g. Besides, the LD50 in the assay on Helicoverpa assulta [23] (Helicoverpa assulta, AH3, 48 h) came to 33.3 mg/kg; in the assay on Helicoverpa assulta [24] (Helicoverpa assulta, AH2, 48 h) it was 16.7 mg/kg; with Helicoverpa assulta [26] (Helicoverpa assulta, GZ1, 48 h) it was 33.3 mg/kg; in the assay on Helicoverpa assulta [28] (Helicoverpa assulta, FJ1, 48 h), 16.7 mg/kg; with Helicoverpa assulta [29] (Helicoverpa assulta, HN2, 48 h), 8.22 mg/kg; with Helicoverpa assulta [30] (Helicoverpa assulta, GZ2, 48 h), 25.3 mg/kg. Further, the LD50 with Helicoverpa assulta [31] (Helicoverpa assulta, YN2, 48 h) turned out to be 34.8 mg/kg; in the assay with Helicoverpa assulta [32] (Helicoverpa assulta, SD1, 48 h), 11.9 mg/kg.
